Reference: patent US10358431B1, “Antimicrobials from an epigenetics based fungal metabolite screening program” (University of South Florida, priority 2015, dated 2019)

Legend:
Leishmania donovani = assay: Infected macrophage model of the Leishmania donovani parasite; format: cell-based; details: for IC50: read-out: L. donovani IC50
MRSA [1] = assay: Pure compound activity against MRSA (ESKAPE pathogens); format: cell-based, Staphylococcus aureus; details: for IC50: pure compound
MRSA [2] = assay: MRSA drug wash-out study / MBC99; format: cell-based, Staphylococcus aureus

Row | Substance | IC50 (MRSA [1]) | IC50 (Leishmania donovani) | further results
1 | Phomopsichromin D [Compound 4] | – | – | L. donovani IC50 (μM) (Leishmania donovani): neither phomopsichromin D (4) nor LL-Z1272ε (6) showed any activity; activity towards the macrophages (macrophages): neither phomopsichromin D (4) nor LL-Z1272ε (6) showed any activity
2 | Phomopsichromin A [Compound 1] | 518 µM | 3 µM | –
3 | LL-Z1272ε [Compound 6] | – | – | L. donovani IC50 (μM) (Leishmania donovani): neither phomopsichromin D (4) nor LL-Z1272ε (6) showed any activity; activity towards the macrophages (macrophages): neither phomopsichromin D (4) nor LL-Z1272ε (6) showed any activity
4 | Phomopsichromin B [Compound 2] | 515 µM | 1.9 µM | –
5 | Phomopsichromin E [Compound 5] | 515 µM | 0.8 µM | –
6 | gentamicin [reference compound] | – | – | MRSA MBC99 (MRSA [2]): 20 µM
7 | Phomopsichromin C [Compound 3] | 58 µM | 0.67 µM | MIC against MRSA (MRSA [1]): 58 µM; drug wash-out study: bactericidal or not (MRSA [2]): bactericidal
